Data set [1] concerns Chikungunya virus. Put plainly: Antiviral activity against Chikungunya virus infected in African green monkey Vero cells after 72 hrs by MTT dye-based assay. The data set is classed as functional, organism-based. (In general: Formazan colour is commonly taken as a measure of viable cells.)
The nature of data set [2]: Binding affinity to Chikungunya virus […].
The test system of data set [3] is Chikungunya virus. Put plainly: Antiviral activity against Chikungunya virus LR2006 OPY1 infected in human MRC5 cells after 48 hrs by indirect immunofluorescence analysis. The data set is classed as functional, organism-based. Conditions: LR2006 OPY1, MRC5, 48 h.
The nature of data set [4]: Selectivity index, ratio of CC50 for African green monkey Vero cells to IC50 for Chikungunya virus MY/065/08/FN295485. The data set is classed as toxicity. Conditions: read-out: Ratio IC50.
For data set [5], the system named is Chikungunya virus. Put plainly: Antiviral activity against Chikungunya virus MY/065/08/FN295485 infected in African green monkey Vero cells assessed as reduction in virus yield after 48 hrs by titration assay. The data set is classed as functional, organism-based. Conditions: MY/065/08/FN295485, Vero.
Data set [6] is described as follows: Cytotoxicity against African green monkey Vero cells assessed as reduction in cell viability measured on day 6 to 7 post infection by MTS dye-based microscopic analysis. Conditions: chlorocebus sabaeus.
Data set [7] deals with Chikungunya virus. Put plainly: Antiviral activity against Chikungunya virus infected in African green monkey Vero cells assessed as inhibition of virus-induced cytopathogenic effect measured on day 6 to 7 post infection by MTS dye-based microscopic analysis. The data set is classed as functional, organism-based. Conditions: 144 h.
Data set [8] relates to Chikungunya virus. Put plainly: Antiviral activity against Chikungunya virus KC969208 infected in African green monkey Vero cells after 48 hrs by MTT dye-based assay. The data set is classed as functional, organism-based.
Data set [9] can be described thus: Selectivity index, ratio of CC50 for African green monkey Vero cells to IC50 for Chikungunya virus KC969208. The data set is classed as toxicity. Conditions: read-out: Ratio CC50/IC50.
Data set [10] concerns Chikungunya virus. Put plainly: Antiviral activity against Chikungunya virus KC969207 infected in African green monkey Vero cells after 48 hrs by MTT dye-based assay. The data set is classed as functional, organism-based.
A short description of data set [11]: Cytotoxicity against African green monkey Vero cells assessed as reduction in cell viability after 4 days by MTT assay. The data set is classed as cell-based. To be noted: chlorocebus sabaeus.
The nature of data set [12]: Selectivity index, ratio of CC50 for African green monkey Vero cells to IC50 for Chikungunya virus KC969207. The data set is classed as toxicity. Conditions: read-out: Ratio CC50/IC50.
Data set [13] has as its system Chikungunya virus. Put plainly: Antiviral activity against Chikungunya virus LR2006 OPY1 infected in BHK cells measured at 14 hrs post infection by luciferase reporter gene assay. The data set is classed as functional, organism-based. On the technique in general: Reporter assays use an easily measured gene product as a stand-in for the process of interest.
A short description of data set [14]: Selectivity index, ratio of CC50 for BHK cells to IC50 for Chikungunya virus LR2006 OPY1. The data set is classed as toxicity. Conditions: hamster, read-out: Ratio CC50/IC50.
A short description of data set [15]: Cytotoxicity against BHK cells assessed as reduction in cell viability after 48 hrs in presence of ATP by Celltiter-Glo luminescent assay. To be noted: hamster. The data set is classed as cell-based, Mesocricetus auratus. (In general: In ATP-based viability assays light output follows the ATP content of the culture.)
Data set [16] concerns Chikungunya virus. Put plainly: Antiviral activity against Chikungunya virus infected in African green monkey Vero cells. The data set is classed as functional, organism-based.
Data set [17] can be described thus: Selectivity index, ratio of CC50 for BHK21 cells to EC50 for Chikungunya virus. The data set is classed as toxicity. To be noted: hamster, BHK-21 cells; read-out: Ratio CC50/EC50.
Data set [18] can be described thus: Selectivity index, ratio of CC50 for human Huh7.5 cells to EC50 for Chikungunya virus. The data set is classed as toxicity. To be noted: read-out: Ratio CC50/EC50.
Data set [19] in a line: Cytotoxicity against BHK21 cells in presence of ATP by Celltiter-Glo assay. To be noted: hamster, BHK-21 cells. The data set is classed as cell-based, Mesocricetus auratus.
Data set [20] has as its system Chikungunya virus. Put plainly: Antiviral activity against Chikungunya virus LR2006-OPY1 infected in human Huh7.5 cells after 48 hrs by luciferase reporter gene assay. To be noted: LR2006-OPY1, Huh7.5, 48 h. The data set is classed as functional, organism-based.
Data set [21] is described as follows: Cytotoxicity against human Huh7.5 cells in presence of ATP by Celltiter-Glo assay. The data set is classed as cell-based.
Data set [22] has as its system Chikungunya virus. Put plainly: Antiviral activity against Chikungunya virus LR2006-OPY1 infected in BHK21 cells after 48 hrs by luciferase reporter gene assay. The data set is classed as functional, organism-based. Conditions: LR2006-OPY1, BHK-21, 48 h.
The subject of data set [23] is Chikungunya virus. Put plainly: Antiviral activity against Chikungunya virus 899 infected in African green monkey Vero A cells by real-time qRT-PCR analysis. The data set is classed as functional, organism-based. To be noted: Chikungunya virus, 899, Vero.
The test system of data set [24] is Chikungunya virus. Put plainly: Antiviral activity against Chikungunya virus 899 infected in African green monkey Vero A cells assessed as reduction in viral infectious progeny by end-point titration assay. The data set is classed as functional, organism-based. Conditions: Chikungunya virus, 899, Vero.
The test system of data set [25] is Chikungunya virus. Put plainly: Antiviral activity against Chikungunya virus 899 infected in African green monkey Vero A cells assessed as inhibition of virus-induced cytopathogenic effect measured on day 5 post infection by MTS/PMS based microscopic analysis. The data set is classed as functional, organism-based. Conditions: Chikungunya virus, 899, Vero, 120 h.

Data set [26] is described as follows: Cytotoxicity against African green monkey Vero A cells assessed as reduction in cell viability measured on day 5 post infection by MTS/PMS based microscopic analysis. Conditions: chlorocebus sabaeus.

Data on 17 compounds can be found in ChEMBL document CHEMBL4177563, “The medicinal chemistry of Chikungunya virus” (Bioorg Med Chem, 2017).

Converted amounts (≈) assume the structure as drawn.

By IC50 is commonly meant the concentration that gives 50% inhibition. The compound `O=c1cc(-c2ccc(O)cc2)oc2cc(O)cc(O)c12` [APIGENIN] displayed an IC50 in the data set on Chikungunya virus [1] of 22.5 to 127 µM.

In the data set on Chikungunya virus [1], `O=c1cc(-c2ccc(O)c(O)c2)oc2cc(O)cc(O)c12` [LUTEOLIN] showed an IC50 of 22.5 to 127 µM.

For orientation: Ki means the equilibrium dissociation constant of an inhibitor or competing ligand from its target. Consider `O=C1C[C@@H](c2ccc(O)cc2)Oc2cc(O)cc(O)c21` [NARINGENIN], for which, in [2], the affinity corresponds to a Ki of 685 nM.

As to `CCOC(=O)c1c(C[S+]([O-])c2ccccc2)n(C)c2cc(Br)c(O)c(CN(C)C)c12` (stereo not given), the IC50 with Chikungunya virus [3] is 54.5 µM.

Turning to `O=c1c(O)c(-c2ccc(O)c(O)c2)oc2cc(O)ccc12` [FISETIN], the selectivity ratio in [4] came out at 23. In addition, the IC50 in the data set with Chikungunya virus [5] is 0.0295 mM.

As usually defined, the CC50 is the concentration at which the toxic effect on the cells reaches its halfway point. For orientation: EC50 means the concentration at which the effect is half-maximal. Regarding `CC1CCCCCCCC(C)C(=O)O[C@H]2/C(=C/Cl)C=C3[C@]45OC6(c7ccccc7)O[C@H]([C@@H]4[C@@H]4O[C@]4(CO)C[C@@]32O)[C@@](O)([C@@H](O6)[C@H]5C)C(C)(O)C1` (stereo not given in full), the half-maximal cytotoxic concentration (CC50) in data set [6] is 5.3 µM. Moreover, in the data set with Chikungunya virus [7], the EC50 came out at 2500 nM.

In the case of `C=C(C)[C@@]1(O)[C@@H]2OC3(c4ccccc4)O[C@H]1[C@@H](C)[C@]1(O3)C3=CC(=C(Cl)Cl)[C@H](OC(=O)c4ccccc4)[C@@]3(O)[C@H](OC(C)=O)[C@@]3(COC(C)=O)O[C@H]3[C@@H]21`, the CC50 in data set [6] turned out to be 35 µM. For the same compound, the EC50 with Chikungunya virus [7] is 1500 nM.

The compound `CCOC(=O)c1c(CS(=O)(=O)c2ccccc2)n(C)c2cc(Br)c(O)c(CN(C)C)c12` came in with an IC50 in the data set with Chikungunya virus [3] of over 56.4 µM.

Regarding `CCCCOC(=O)c1ccccc1C(=O)O`, the IC50 was found to be 28.6 µM in the data set on Chikungunya virus [8] and 2490 nM in the data set on Chikungunya virus [10]. Further, the selectivity ratio is 11.9 in data set [9] and 136 in data set [12]. Besides, the CC50 at 96 h in [11] was 340 µM.

Compound `CN1CCC(CN2c3ccccc3Sc3ccccc32)C1` (stereo not given) [METHDILAZINE] had an IC50 with Chikungunya virus [13] of 11.3 µM. Also, the selectivity ratio in data set [14] was 5.6. Moreover, the CC50 at 48 h in data set [15] was determined as 63.8 µM.

Consider `O=c1c(O)c(-c2ccc(O)c(O)c2)oc2cc(O)c(O)c(O)c12` [QUERCETAGETIN], for which the selectivity ratio in data set [4] was determined as 16.3. In the data set with Chikungunya virus [5], the IC50 stood at 25.3 mM. Further, the Ki in data set [2] was 489 nM.

Consider `CCCCCCCCCCCCCCCCCOC(=O)c1ccccc1C(=O)O`, for which half-maximal inhibition in the data set with Chikungunya virus [8] (IC50) was put at 76.5 µM. In data set [9], the selectivity ratio turned out to be 4.66.

In turn, `CCN(CC)C(C)CN1c2ccccc2Sc2ccccc21` (stereo not given) [ETHOPROPAZINE] gave an IC50 with Chikungunya virus [13] of 16 µM. For the same compound, the selectivity ratio in [14] is 10.4. In addition, the CC50 at 48 h in [15] amounted to 167 µM.

On to `C=C[C@H]1CN2CC[C@H]1C[C@H]2[C@H](O)c1ccnc2ccc(OC)cc12` [QUININE], for which the IC50 in the data set with Chikungunya virus [16] was 0.1 µg/mL (≈ 0.308 µM).

Regarding `CC[C@H](C)[C@H]1O[C@]2(CC[C@@H]1C)C[C@@H]1C[C@@H](C/C=C(\C)[C@@H](O[C@H]3C[C@H](OC)[C@@H](O[C@H]4C[C@H](OC)[C@@H](O)[C@H](C)O4)[C@H](C)O3)[C@@H](C)/C=C/C=C3\CO[C@]4(O)[C@H](O)C(C)=C[C@@H](C(=O)O1)[C@]34O)O2`, the results for the selectivity ratio in data set [17] and in data set [18] were 62.4 and 4.1, respectively. In addition, the figures for the CC50 in data set [19] and in [21] were 37.9 µM and 8 µM, respectively. Moreover, the EC50 turned out to be 1900 nM in the data set with Chikungunya virus [20] and 600 nM in the data set on Chikungunya virus [22].

As for `CC1CCCCCCCC(C)C(=O)O[C@H]2/C(=C/Cl)C=C3[C@]45OC6(c7ccccc7)O[C@H]([C@@H]4[C@@H]4O[C@]4(CO)C[C@@]32O)[C@@](O)([C@@H](O6)[C@H]5C)C(O)(COC(=O)c2ccccc2)C1` (stereo not given in full), the CC50 in data set [6] came to 10.5 µM. The EC50 with Chikungunya virus [7] is 3900 nM.

`CCCCCCCC(=O)O[C@H]1/C(=C/C(=O)OC)C[C@H]2C[C@H](CC(=O)OC)OC(=O)CCOc3ccccc3C(=O)OCC(C)(C)[C@]1(O)O2`: the values for the EC50 in the data set on Chikungunya virus [23], in the data set on Chikungunya virus [24] and in the data set on Chikungunya virus [25] were 4.6 µM, 4.5 µM and 8 µM, respectively. The CC50 at 5 days in data set [26] was over 50 µM.
